The subject of data set [1] is Jurkat cells. The experiment in a line: Measurement of Inhibitory Effect on Leukocyte Functions (adhesion of Jurkat cells to ligand-expressing cells or ligand-immobilized plate). The class given is cell-based. The conditions noted are these: Homo sapiens, 0.5 h, read-out: IC50 (concentration at which the number of adherent cells is reduced by 50%). As to the method: Jurkat cells, which are the cell line originated from human acute T cell […], were allowed to react with BCECF-AM at 37° C. for 20 minutes to fluorescently label the cells. The fluorescently labelled Jurkat cells were allowed to react with ligand-expressing cells or with a ligand-immobilized plate at 37° C. for 30 minutes. After removing non-adherent cells by washing, 1% NP40 was added thereto to lyse the adherent cells, and fluorescence intensity was measured with Cytofluor 2300 (Millipore). From the obtained fluorescence intensity, the number of adherent cells was calculated. Each test compound was reacted with the Jurkat cells before the beginning of the adhesion reaction. In Table 18, the IC50 of each compound (i.e. the concentration at which the number of adherent cells is reduced by 50%) is shown.

Data set [2] in a line: Pharmacokinetic Evaluation in Rats. The class given is in vivo. The following applies: rat, male SD rats, administered orally or intravenously, 0.5 mg/mL dosing solution, plasma up to 8 hours; for clearance: intravenous, read-out: CLtot (total clearance) (converted); for bioavailability: oral, read-out: BA (bioavailability). On the procedure: Each compound was dissolved in PBS or PBS containing 10% PEG, thereby preparing 0.5 mg/mL dosing solution. The compound was administered orally or intravenously to male SD rats (7 to 9 weeks old). Blood was collected with time from the tail vein at time points up to 8 hours after the administration, and obtained blood was centrifuged to collect blood plasma. The blood plasma was pretreated by using the solid-phase extraction method, and the concentration of the compound was analyzed with LC/MS/MS (ESI negative mode).
As the Comparative Compound, 2-[4-((3,5-dichlorobenzensulfonylamino)methyl)benzoylamino]-5-(4-(methyl-pyrimidin-2-ylamino)phenyl)pent-4-enoic acid (XXI) described in WO 99/26923 was used.

In data set [3] the test system is Mouse Experimental Autoimmune Encephalomyelitis Model. Description: Inhibitory Effect of Compounds Against Mouse Experimental Autoimmune Encephalomyelitis Model. The class given is in vivo. The conditions noted are these: orally 50 mg/kg every day from one day before inoculation of PLP139-151; female SJL mouse; scored at Days 11, 12 or 14. On the procedure:
This method was carried out in accordance with the literature “Int. Immunol., 9, 1243-1251 (1997)”.
A PBS solution containing 2 mg/mL partial synthetic peptide (PLP139-151) of proteolipid protein was mixed with an equal amount of Freund's complete adjuvant, and the resulting mixture was inoculated intracutaneously into both lateral regions of 7-week-old female SJL mouse (Charles River Laboratories Japan) in a total amount of 0.1 mL (0.05 mL per one side). The compounds described in Example 77, Example 78, Example 80, Example 81, Example 83 and Example 84 were orally administered at a dose of 50 mg/kg every day from one day before the inoculation, and neurological symptoms was scored (0: normal, 1: limp tail or hind limb weakness, 2: limp tail and hind limb weakness, 3: partial hind limb paralysis, 4: complete hind limb paralysis, 5: moribund state) at Days 11, 12 or 14. The scoring was carried out by using the method described in Current Protocols in Immunology (John Wiley & Sons, Inc).

[4] abbreviates: Jurkat cell adhesion to ligand-expressing cells or ligand-immobilized plate, 37° C., 30 minutes.

Molecules are shown by their SMILES. Counter-ions that a name gives are not always drawn. Like-named read-outs stand apart in the source and are kept apart here.

On to `CCCCN(c1ccc(/C=C/CC(NC(=O)c2c(Cl)cccc2Cl)C(=O)O)cc1)c1ncccn1` (stereo not shown) [Example 37, (E)-5-(4-Butyl-pyrimidin-2-yl-amino)-phenyl]-2-(2,6-dichlorobenzamido)-pent-4-enoic acid sodium salt], for which the IC50 in data set [1] turned out to be 160 nM.
Turning to `CC(C)=CCN(c1ccc(/C=C/CC(NC(=O)c2c(Cl)cccc2Cl)C(=O)O)cc1)c1ncccn1` (stereo not shown) [Example 51, (E)-2-(2,6-Dichlorobenzamido)-5-[4-((3-methyl-2-butenyl)-pyrimidin-2-ylamino)phenyl]pent-4-enoic acid sodium salt], the IC50 in data set [1] (setting [4]) amounted to 100 nM.
For the compound `O=C(NC(C/C=C/c1ccc(N(CC2CC2)c2ncccn2)cc1)C(=O)O)c1c(Cl)cccc1Cl` (stereo not shown) [Example 53, (E)-5-[4-(Cyclopropylmethyl-pyrimidin-2-ylamino)phenyl]-2-(2,6-dichlorobenzamido)pent-4-enoic acid sodium salt], the IC50 in data set [1] was 120 nM.
For the compound `CC(C)CN(c1ccc(/C=C/CC(NC(=O)c2c(Cl)cccc2Cl)C(=O)O)cc1)c1ncccn1` (stereo not shown) [Example 55, (E)-2-(2,6-Dichlorobenzamido)-5-[4-(isobutyl-pyrimidin-2-ylamino)phenyl]pent-4-enoic acid sodium salt], the IC50 in data set [1] worked out at 420 nM.
Consider `COC1(c2ccc(/C=C/C[C@H](NC(=O)c3c(Cl)cccc3Cl)C(=O)O)cc2)CCOCC1` [Example 77, (S,E)-2-(2,6-Dichlorobenzamido)-5-[4-(4-methoxytetrahydropyran-4-yl)-phenyl]pent-4-enoic acid], for which, in data set [2], the clearance is 16 mL/min/kg and the bioavailability came out at 20%. Also, the IC50 in data set [1] (setting [4]) was 49 nM. The “rate of reduction of increase in the score of neurological symptoms” value in data set [3] was found to be 40%.
In the case of `COC1(c2ccc(/C=C/C[C@H](NC(=O)c3c(Cl)cccc3Cl)C(=O)[O-])cc2)CCOCC1.[Na+]` [Example 78, (S,E)-2-(2,6-Dichlorobenzamido)-5-[4-(4-methoxytetrahydropyran-4-yl)-phenyl]pent-4-enoic acid sodium salt], in data set [2], the clearance was 16.6 mL/min/kg and the bioavailability turned out to be 26.1%. Also, the “rate of reduction of increase in the score of neurological symptoms” value in data set [3] worked out at 60%.
Regarding `CN(c1ccc(/C=C/C[C@H](NC(=O)c2c(Cl)cccc2Cl)C(=O)O)cc1)c1ncccn1` [Example 80, (S,E)-2-(2,6-Dichlorobenzamido)-5-[4-(methyl-pyrimidin-2-ylamino)phenyl]pent-4-enoic acid], in data set [2], the clearance was 15.1 mL/min/kg and the bioavailability came out at 47.6%. Also, the IC50 in data set [1] (setting [4]) was 95 nM. For the same compound, the “rate of reduction of increase in the score of neurological symptoms” value in data set [3] is recorded as 60%.
Turning to `CN(c1ccc(/C=C/C[C@H](NC(=O)c2c(Cl)cccc2Cl)C(=O)[O-])cc1)c1ncccn1.[Na+]` [Example 81, (S,E)-2-(2,6-Dichlorobenzamido)-5-[4-(methyl-pyrimidin-2-ylamino)phenyl]pent-4-enoic acid sodium salt], in data set [2], the clearance was 16.1 mL/min/kg and the bioavailability worked out at 50.9%. The “rate of reduction of increase in the score of neurological symptoms” value in data set [3] is 68%.
As for `CC(C)N(c1ccc(/C=C/C[C@H](NC(=O)c2c(Cl)cccc2Cl)C(=O)O)cc1)c1ncccn1` [Example 83, (S,E)-2-(2,6-Dichlorobenzamido)-5-[4-(isopropyl-pyrimidin-2-ylamino)phenyl]pent-4-enoic acid], in data set [2], the clearance was 18.1 mL/min/kg and the bioavailability was 40%. The IC50 in data set [1] (setting [4]) came to 17 nM. Further, the “rate of reduction of increase in the score of neurological symptoms” value in data set [3] turned out to be 70%.
For `CC(C)N(c1ccc(/C=C/C[C@H](NC(=O)c2c(Cl)cccc2Cl)C(=O)[O-])cc1)c1ncccn1.[Na+]` [Example 84, (S,E)-2-(2,6-Dichlorobenzamido)-5-[4-(isopropyl-pyrimidin-2-ylamino)phenyl]pent-4-enoic acid sodium salt], in data set [2], the clearance was 19.6 mL/min/kg and the bioavailability came to 58.5%. Also, the “rate of reduction of increase in the score of neurological symptoms” value in data set [3] is reported as 67%.

Values taken from patent US7879837B2, “Therapeutic or prophylactic agent for multiple sclerosis” (Toray Industries, Inc., priority 2006, dated 2011).
